# Experimental data from patent US20240217990A1 (Gilead Sciences, Inc., priority 2021, published 2024).
# Key:
# TLR7 = biological target: T1, TLR7 (Homo sapiens, UniProt Q9NYK1); test: TLR7 human PBMC cell-based assay (antagonist, GS-986 stimulated cytokine release); conditions: human PBMCs; TLR7 agonist GS-986 400 nM, 6 hours; cytokines (IL-6 and IFNα) in supernatant; read-out: TLR-7 EC50
# T1 construct: Human peripheral blood mononuclear cells (PBMCs) consist of lymphocytes, monocytes and dendritic cells that express TLR7, TLR8 and TLR9; endogenous in cells; host or cells: cryopreserved human PBMCs from healthy donors
# T1 sequence (Q9NYK1 27-1049): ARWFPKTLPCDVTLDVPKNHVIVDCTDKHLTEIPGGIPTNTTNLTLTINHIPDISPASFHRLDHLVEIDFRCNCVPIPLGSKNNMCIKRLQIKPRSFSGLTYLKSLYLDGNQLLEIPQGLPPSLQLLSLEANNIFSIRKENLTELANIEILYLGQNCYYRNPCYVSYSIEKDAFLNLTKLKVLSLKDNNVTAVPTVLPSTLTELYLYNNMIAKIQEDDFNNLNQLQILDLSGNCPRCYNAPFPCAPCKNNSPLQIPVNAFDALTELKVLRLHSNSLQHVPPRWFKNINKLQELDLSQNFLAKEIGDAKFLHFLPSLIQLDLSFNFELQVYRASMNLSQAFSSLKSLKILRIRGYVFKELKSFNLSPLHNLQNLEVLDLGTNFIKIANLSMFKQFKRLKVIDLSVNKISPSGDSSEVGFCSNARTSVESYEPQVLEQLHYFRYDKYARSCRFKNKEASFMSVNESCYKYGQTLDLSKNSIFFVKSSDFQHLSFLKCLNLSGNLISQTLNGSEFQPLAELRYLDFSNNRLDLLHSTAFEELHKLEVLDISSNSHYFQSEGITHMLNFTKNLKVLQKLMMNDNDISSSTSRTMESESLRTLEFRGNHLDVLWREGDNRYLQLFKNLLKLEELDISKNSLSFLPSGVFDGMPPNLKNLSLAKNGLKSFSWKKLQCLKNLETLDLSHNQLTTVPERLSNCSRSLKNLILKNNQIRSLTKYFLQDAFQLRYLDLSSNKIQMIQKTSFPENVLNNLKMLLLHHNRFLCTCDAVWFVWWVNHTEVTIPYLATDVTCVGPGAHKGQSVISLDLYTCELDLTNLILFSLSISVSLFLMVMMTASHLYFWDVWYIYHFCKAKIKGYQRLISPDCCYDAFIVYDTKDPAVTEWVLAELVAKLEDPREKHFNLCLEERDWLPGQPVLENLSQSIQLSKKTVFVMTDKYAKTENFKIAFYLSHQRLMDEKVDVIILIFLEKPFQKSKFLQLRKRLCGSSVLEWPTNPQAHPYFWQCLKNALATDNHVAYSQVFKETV
# From the text: (§1) Human peripheral blood mononuclear cells (PBMCs) consist of lymphocytes, monocytes and dendritic cells that express TLR7, TLR8 and TLR9. These cells respond to TLR7, TLR8 and TLR9 ligand stimulation and produce cytokines and chemokines in vitro and in vivo. Human PBMCs are therefore suitable to be used in a cell-based assay to assess the in vitro potency of a TLR 7, 8, and/or 9 antagonist. The result is expected to be more translatable to the pharmacodynamics response in vivo than cell line-based assays.
# Cryopreserved human PBMCs from healthy donors were thawed and resuspended in RPMI-1640 media with L-glutamine (Corning) supplemented with 10% Fetal Bovine Serum (Hyclone) and 1× Penicillin-Streptomycin (Corning). After counting, the cell density was adjusted to 2 million cells/ml and incubated for 1 hour at 37° C., 5% CO2 for recovery. Following the recovery, the cells were plated by adding 50 μl per well (100,000 cells) to 384-well cell culture plates (Greiner) containing 250 nl of test antagonists in 100% DMSO per well, in a 10 points dose response in quadruplicates. PBMCs were incubated in the presence of test antagonists for one hour at 37° C., 5% CO2 before being stimulated with a TLR7 or TLR9agonist. GS-986 (Gilead Sciences) was used as the TLR7 agonist at a final concentration of 400 nM. ODN-2216 (InvivoGen) was used as the TLR9 agonist at a final concentration of 3 μM. PBMCs were incubated in the presence of the test antagonist and the TLR7 (or TLR9) agonist for an additional 6 hours at 37° C., 5% CO2. At the end of the incubation, the cell culture plates were centrifuged at 500 g for 5 min, and the cell culture supernatant was collected. The level of cytokines (IL-6 and IFNα) in the supernatant was measured by electrochemiluminescence immunoassays (Mesoscale Discovery) following manufacturer's recommended protocols. The level of cytokine measured was plotted against the test antagonist concentration and fitted to a sigmoidal function to determine the EC50, which are shown below in Table 11.
# TLR8 = biological target: T2, TLR8 (Homo sapiens, UniProt Q9NR97); test: TLR8 human PBMC cell-based assay (antagonist, Compound A stimulated cytokine release); conditions: human PBMCs; TLR8 agonist Compound A 800 nM, 6 hours; cytokines (TNFa and IL 12p40) in supernatant; read-out: TLR-8 EC50
# T2 construct: Human peripheral blood mononuclear cells (PBMCs) consist of lymphocytes, monocytes and dendritic cells that express TLR7, TLR8 and TLR9; endogenous in cells; host or cells: cryopreserved human PBMCs from healthy donors
# T2 sequence (Q9NR97 27-1041): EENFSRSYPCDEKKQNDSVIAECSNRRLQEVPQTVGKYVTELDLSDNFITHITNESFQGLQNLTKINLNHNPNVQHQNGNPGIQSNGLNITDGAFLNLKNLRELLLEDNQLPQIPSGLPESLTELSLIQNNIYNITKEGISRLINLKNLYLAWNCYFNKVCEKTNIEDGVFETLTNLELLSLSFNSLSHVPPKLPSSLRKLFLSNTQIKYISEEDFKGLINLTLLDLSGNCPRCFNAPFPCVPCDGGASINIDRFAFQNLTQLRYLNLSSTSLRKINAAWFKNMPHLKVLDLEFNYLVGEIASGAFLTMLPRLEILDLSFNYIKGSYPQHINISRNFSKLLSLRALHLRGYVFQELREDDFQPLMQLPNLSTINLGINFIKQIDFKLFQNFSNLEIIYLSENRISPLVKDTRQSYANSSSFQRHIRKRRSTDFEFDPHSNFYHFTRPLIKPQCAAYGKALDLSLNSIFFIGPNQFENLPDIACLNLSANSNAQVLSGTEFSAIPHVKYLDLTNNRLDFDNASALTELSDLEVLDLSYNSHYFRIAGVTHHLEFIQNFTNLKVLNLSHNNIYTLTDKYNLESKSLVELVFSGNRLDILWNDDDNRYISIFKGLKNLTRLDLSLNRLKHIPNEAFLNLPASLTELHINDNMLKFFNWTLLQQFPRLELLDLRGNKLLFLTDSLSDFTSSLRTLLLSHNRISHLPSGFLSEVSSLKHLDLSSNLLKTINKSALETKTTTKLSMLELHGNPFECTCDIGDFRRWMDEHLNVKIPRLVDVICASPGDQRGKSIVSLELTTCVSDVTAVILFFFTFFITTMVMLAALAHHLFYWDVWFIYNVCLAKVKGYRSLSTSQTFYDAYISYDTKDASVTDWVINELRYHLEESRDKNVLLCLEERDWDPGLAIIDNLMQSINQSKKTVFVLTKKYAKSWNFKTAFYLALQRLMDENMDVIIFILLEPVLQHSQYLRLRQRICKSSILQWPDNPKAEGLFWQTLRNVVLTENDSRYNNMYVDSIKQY
# From the text: as §1
# Cryopreserved human PBMCs from healthy donors were thawed and resuspended in RPMI-1640 media with L-glutamine (Corning) supplemented with 10% Fetal Bovine Serum (Hyclone) and 1X Penicillin-Streptomycin (Corning). After counting, the cell density was adjusted to 2 million cells/ml and incubated for 1 hour at 37° C., 5% CO2 for recovery. Following the recovery, the cells were plated by adding 50 μl per well (100,000 cells) to 384-well cell culture plates (Greiner) containing 250 nl of test antagonists in 100% DMSO per well, in a 10 points dose response in quadruplicates. PBMCs were incubated in the presence of antagonists for one hour at 37° C., 5% CO2 before being stimulated with TLR8 agonist. Compound A (Gilead Sciences, U.S. Pat. No. 10,285,990) was used as the TLR8 agonist at a final concentration of 800 nM. PBMCs were incubated in the presence of antagonist and the TLR8 agonist for an additional 6 hours at 37° C., 5% CO2. At the end of the incubation, the cell culture plates were centrifuged at 500 g for 5 min, and the cell culture supernatant was collected. The level of cytokines (TNFa and IL 12p40) in the supernatant was measured by electrochemiluminescence immunoassays (Mesoscale Discovery) following manufacturer's recommended protocols. The level of cytokine measured was plotted against the antagonist concentration and fitted to a sigmoidal function to determine the EC50, which are shown below in Table 11.
SMILES,EC50 (TLR7),EC50 (TLR8)
Cc1cc(-c2[nH]c3cc(C(=O)N4CC5CCC(C4)N5)sc3c2C(C)C)cc(C)n1 [Example 16],43.5 nM,15.1 nM
Cc1cc(-c2[nH]c3cc(C(=O)N4C5CCC4CNC5)sc3c2C(C)C)cc(C)n1 [Example 17],49.9 nM,32 nM
Cc1cc(-c2[nH]c3cc(C(=O)N4CC5CC(C4)N5)sc3c2C(C)C)cc(C)n1 [Example 18],200 nM,67.2 nM
Cc1cc(-c2[nH]c3cc(C(=O)N4C5CNCC4C5)sc3c2C(C)C)cc(C)n1 [Example 19],77.7 nM,53.7 nM
Cc1cc(-c2[nH]c3cc(C(=O)N4C[C@@H]5C[C@H]4CN5)sc3c2C(C)C)cc(C)n1 [Example 20],223 nM,26.4 nM
Cc1cc(-c2[nH]c3cc(C(=O)N4C[C@H]5C[C@@H]4CN5)sc3c2C(C)C)cc(C)n1 [Example 21],70.6 nM,66.2 nM
Cc1cc(-c2[nH]c3cc(C(=O)N(C)[C@@H]4CCNC4)sc3c2C(C)C)cc(C)n1 [Example 22],50.1 nM,94 nM
Cc1cc(-c2[nH]c3cc(C(=O)N(C)[C@H]4CCNC4)sc3c2C(C)C)cc(C)n1 [Example 23],19.9 nM,68 nM
Cc1cc(-c2[nH]c3cc(C(=O)N4CC5(CNC5)C4)sc3c2C(C)C)cc(C)n1 [Example 24],504 nM,408 nM
CO[C@@H]1CCN(C(=O)c2cc3[nH]c(-c4cc(C)nc(C)c4)c(C(C)C)c3s2)C[C@@H]1N [Example 25],64.4 nM,136 nM
Cc1cc(-c2[nH]c3cc(C(=O)N4CC[C@@H](F)[C@@H](N)C4)sc3c2C(C)C)cc(C)n1 [Example 27],72 nM,123 nM
Cc1cc(-c2[nH]c3cc(C(=O)N4CCCC5NCCC54)sc3c2C(C)C)cc(C)n1 (centres unmarked) [Example 28],26 nM,81 nM
Cc1cc(-c2[nH]c3cc(C(=O)N(C)[C@H]4CCCNC4)sc3c2C(C)C)cc(C)n1 [Example 29],60 nM,92 nM
Cc1cc(-c2[nH]c3cc(C(=O)N4CCC5CCNC5C4)sc3c2C(C)C)cc(C)n1 (centres unmarked) [Example 30],35.9 nM,30 nM

# Next, values leading:
EC50 (TLR7),EC50 (TLR8),SMILES
40.6 nM,68 nM,Cc1cc(-c2[nH]c3cc(C(=O)N4CCC5CC5(N)C4)sc3c2C(C)C)cc(C)n1 (centres unmarked) [Example 31]
2.1 nM,1.2 nM,Cc1c(-c2[nH]c3cc(C(=O)N4CCNCC4)sc3c2C(C)C)cn2ncnc2c1C [Example 32]
9.7 nM,3 nM,Cc1cc(-c2[nH]c3cc(C(=O)N4CCNCC4)sc3c2C(C)C)cn(C)c1=O [Example 34]
29.8 nM,37 nM,Cc1cc(-c2[nH]c3cc(C(=O)N(C)[C@H]4CCNC4)sc3c2C(C)C)cn(C)c1=O [Example 36]
3.5 nM,3.4 nM,"Cc1cc(-c2[nH]c3cc(C(=O)N4CCNCC4)sc3c2C(C)C)cn2ncnc12 [Example 38, [6-isopropyl-5-(8-methyl-[1,2,4]triazolo[1,5-a]pyridin-6-yl)-4H-thieno[3,2-b]pyrrol-2-yl]-piperazin-1-yl-methanone]"
0.6 nM,11.2 nM,Cc1cc(-c2[nH]c3cc(C(=O)N(C)[C@H]4CCNC4)sc3c2C(C)C)cn2ncnc12 [Example 39]
17.8 nM,115 nM,"Cc1cc(-c2[nH]c3cc(C(=O)N4CCNC(=O)C4)sc3c2C(C)C)cn2ncnc12 [Example 40, 4-[6-isopropyl-5-(8-methyl-[1,2,4]triazolo[1,5-a]pyridin-6-yl)-4H-thieno[3,2-b]pyrrole-2-carbonyl]piperazin-2-one]"
6.4 nM,2.6 nM,Cc1cc(-c2[nH]c3cc(C(=O)N4CCN(C)CC4)sc3c2C(C)C)cn2ncnc12 [Example 43]
46.1 nM,41.2 nM,Cc1cc(-c2[nH]c3cc(C(=O)N4CCC(O)CC4)sc3c2C(C)C)cn2ncnc12 [Example 44]
355 nM,31.7 nM,Cc1cc(-c2[nH]c3cc(C(=O)N4CCN(CCO)CC4)sc3c2C(C)C)cc(C)n1 [Example 45]
0.1 nM,3.8 nM,"Cc1cc(-c2[nH]c3cc(-c4nc(C5CCNCC5)no4)sc3c2C(C)C)cn2ncnc12 [Example 46, 5-(6-isopropyl-5-(8-methyl-[1,2,4]triazolo[1,5-a]pyridin-6-yl)-4H-thieno[3,2-b]pyrrol-2-yl)-3-(piperidin-4-yl)-1,2,4-oxadiazole]"
